{
  "source": "patent EP0197829A1",
  "about": "“5H-pyrido[3',4':4,5]pyrrolo[3,2-c]pyridine derivatives, process for their preparation and their antitunour activity” (SANOFI, priority 1985, dated 1986)",
  "key": {"leucémie P 388": {"test_system": "leucémie P 388", "assay_type": "in vivo, souris hybrides CDF1", "details": "for Survivants: at day J 40", "source_text": "(§1) L'activité antitumorale a été testée in vivo sur différentes tumeurs selon le protocole général suivant : Toutes les souris mâles ou femelles sont inoculées par voie intrapéritonéale au jour Jo avec une quantité déterminée de cellules tumorales viables, variable selon la tumeur.\n(§2) Elles sont ensuite réparties en différents lots. Chaque lot correspondant aux animaux traités par le produit à tester à une dose déterminée est composé de lO souris. Dans ce cas, le produit à tester est dissous dans l'eau distillée et il est administré, pendant n jours (J1-Jn) variables selon le protocole choisi, par voie intrapéritonéale à raison de 0,1 ml par lO g de poids des souris traitées, les doses du produit administré étant précisées dans les tableaux ci-dessous.\n(§3) Le lot \"Contrôle négatif\", correspondant aux animaux qui ne sont pas traités par un produit, comprend 2 √N animaux, N étant égal au nombre total de souris traitées par un produit.\n(§4) Enfin, tous lés essais sont conduits parallèlement à l'étude d'un lot appelé \"Contrôle positif\" de 10 animaux qui est traité par une molécule active, variable selon le protocole choisi, dans les mêmes conditions que les lots traités par le produit à tester, afin de valider l'essai.\n(§5) L'activité antitumorale est évaluée en considérant l'augmentation du temps de survie des animaux traités par rapport à celui des animaux du lot \"Contrôle négatif\" selon la formule : • Jour médian de survie des animaux traités à une T/C = dose donnée de produit x 100 • Jour médian de survie des animaux \"Contrôle négatif\"\n(§6) Un composé est considéré comme étant actif lorsque la valeur du rapport T/C est égale ou supérieure à 125 % selon le protocole retenu. Il est toxique lorsque cette valeur est égale ou inférieure à 85 %. Le produit est également considéré comme toxique lorsque la variation pondérale, exprimée en grammes et calculée par la formule : Poids moyen du lot mesuré au jour 5 - poids moyen du même lot au jour 1, est égale ou inférieure à -4g . a) Test de la leucémie P 388 (GERAN et al., Cancer Chemother, 1972, 2, 07-57).\nLes essais sont effectués avec des souris hybrides CDF1 inoculées par voie intrapéritonéale avec […] leucémiques de la lignée P 388. Le composé à tester est administré pendant 5 jours (Jl-J5). Le contrôle positif du test est le 5-fluorouracile qui est administré dans les mêmes conditions.\n[…] Un composé est considéré comme étant actif lorsque le rapport T/C est supérieur à 127 %."}, "leucémie L 1210": {"test_system": "leucémie L 1210", "assay": "L 1210 leukemia test in vivo", "set-up": "species or system souris hybrides CDF1", "details": "for Survivants: at day J 60", "source_text": "as §1, §2, §3, §4, §5, §6\nb) Test de la leucémie L 1210 (GERAN et al., Cancer Chemother, 1972, 2, 07-57).\nLes essais sont effectués avec des souris hybrides CDF1 inoculées avec 10^5 cellules leucémiques de la lignée L 1210. Le composé à tester est administré pendant 5 jours (J1-J5). Le contrôle positif du test est le 5-fluorouracile administré dans les mêmes conditions. Le nombre d'animaux survivants est évalué au jour J 60. Un composé est considéré comme étant actif lorsque le rapport T/C est supérieur ou égal à 125 %."}, "réticulosarcome M5-M5076": {"test_system": "réticulosarcome M5-M5076", "assay": "M5-M5076 reticulosarcoma test in vivo", "set-up": "species or system souris hybrides BDF1", "details": "for Survivants: at day J 75", "source_text": "as §1, §2, §3, §4, §5, §6\nd) Test du réticulosarcome M5-M5076.\nLes essais sont effectués avec des souris hybrides BDF1 inoculées avec 10^6 cellules de la lignée M5-M5076. Le composé à tester est administré 5 fois successivement de façon séquentielle (Jl, 5, 9, 13, 17). Le contrôle positif du test est le cyclophosphamide administré dans les mêmes conditions. Le nombre d'animaux survivants est évalué au jour J 75. Un composé est considéré comme actif lorsque le rapport T/C est supérieur ou égal à 125 %."}, "[1]": {"details": "100 mg/kg i.p. J1, 5, 9, 13, 17"}, "[2]": {"details": "150 mg/kg i.p. J1, 5, 9, 13, 17"}},
  "note": "Where two headings read alike, the source gives them in different places.",
  "data": [
    {"smiles": "Cc1cnc(NCCCN(C)C)c2c1[nH]c1ccncc12", "note": "[Dérivé N° 3, [(diméthylamino-3 propyl-1)amino]-1 méthyl-4 5-H pyrido[3',4':4,5]pyrrolo[3,2-c]pyridine]", "values": [
      {"measurement": "Jour médian de survie", "setting": "leucémie P 388; 5 mg/kg i.p. J1-J5", "value": "16,25"},
      {"measurement": "T/C %", "setting": "leucémie P 388; 5 mg/kg i.p. J1-J5", "value": 147, "unit": "%"},
      {"measurement": "Survivants", "setting": "leucémie P 388; 5 mg/kg i.p. J1-J5", "value": 0},
      {"measurement": "Jour médian de survie", "setting": "leucémie P 388; 10 mg/kg i.p. J1-J5", "value": "17,75"},
      {"measurement": "T/C %", "setting": "leucémie P 388; 10 mg/kg i.p. J1-J5", "value": 161, "unit": "%"},
      {"measurement": "Survivants", "setting": "leucémie P 388; 10 mg/kg i.p. J1-J5", "value": 0},
      {"measurement": "Jour médian de survie", "setting": "leucémie P 388; 20 mg/kg i.p. J1-J5", "value": "20,0"},
      {"measurement": "T/C %", "setting": "leucémie P 388; 20 mg/kg i.p. J1-J5", "value": 181, "unit": "%"},
      {"measurement": "Survivants", "setting": "leucémie P 388; 20 mg/kg i.p. J1-J5", "value": 0},
      {"measurement": "Jour médian de survie", "setting": "leucémie P 388; 40 mg/kg i.p. J1-J5", "value": "19,3"},
      {"measurement": "T/C %", "setting": "leucémie P 388; 40 mg/kg i.p. J1-J5", "value": 175, "unit": "%"},
      {"measurement": "Survivants", "setting": "leucémie P 388; 40 mg/kg i.p. J1-J5", "value": 1},
      {"measurement": "Jour médian de survie", "setting": "leucémie P 388; 80 mg/kg i.p. J1-J5", "value": "7,3"},
      {"measurement": "T/C %", "setting": "leucémie P 388; 80 mg/kg i.p. J1-J5", "value": 66, "unit": "%"},
      {"measurement": "Survivants", "setting": "leucémie P 388; 80 mg/kg i.p. J1-J5", "value": 0},
      {"measurement": "Jour médian de survie", "setting": "leucémie P 388; 0,625 mg/kg i.p. J1-J5", "value": "13,1"},
      {"measurement": "T/C %", "setting": "leucémie P 388; 0,625 mg/kg i.p. J1-J5", "value": 119, "unit": "%"},
      {"measurement": "Survivants", "setting": "leucémie P 388; 0,625 mg/kg i.p. J1-J5", "value": 0},
      {"measurement": "Jour médian de survie", "setting": "leucémie P 388; 1,25 mg/kg i.p. J1-J5", "value": "14,1"},
      {"measurement": "T/C %", "setting": "leucémie P 388; 1,25 mg/kg i.p. J1-J5", "value": 128, "unit": "%"},
      {"measurement": "Survivants", "setting": "leucémie P 388; 1,25 mg/kg i.p. J1-J5", "value": 0},
      {"measurement": "Jour médian de survie", "setting": "leucémie P 388; 2,5 mg/kg i.p. J1-J5", "value": "15,0"},
      {"measurement": "T/C %", "setting": "leucémie P 388; 2,5 mg/kg i.p. J1-J5", "value": 136, "unit": "%"},
      {"measurement": "Survivants", "setting": "leucémie P 388; 2,5 mg/kg i.p. J1-J5", "value": 0},
      {"measurement": "Jour médian de survie", "setting": "leucémie L 1210; 5 mg/kg i.p. J1-J5", "value": "14,0"},
      {"measurement": "T/C %", "setting": "leucémie L 1210; 5 mg/kg i.p. J1-J5", "value": 152, "unit": "%"},
      {"measurement": "Survivants", "setting": "leucémie L 1210; 5 mg/kg i.p. J1-J5", "value": 0},
      {"measurement": "Jour médian de survie", "setting": "leucémie L 1210; 10 mg/kg i.p. J1-J5", "value": "16,25"},
      {"measurement": "T/C %", "setting": "leucémie L 1210; 10 mg/kg i.p. J1-J5", "value": 177, "unit": "%"},
      {"measurement": "Survivants", "setting": "leucémie L 1210; 10 mg/kg i.p. J1-J5", "value": 0},
      {"measurement": "Jour médian de survie", "setting": "leucémie L 1210; 20 mg/kg i.p. J1-J5", "value": "15,6"},
      {"measurement": "T/C %", "setting": "leucémie L 1210; 20 mg/kg i.p. J1-J5", "value": 170, "unit": "%"},
      {"measurement": "Survivants", "setting": "leucémie L 1210; 20 mg/kg i.p. J1-J5", "value": 0},
      {"measurement": "Jour médian de survie", "setting": "leucémie L 1210; 40 mg/kg i.p. J1-J5", "value": "9,25"},
      {"measurement": "T/C %", "setting": "leucémie L 1210; 40 mg/kg i.p. J1-J5", "value": 100, "unit": "%"},
      {"measurement": "Survivants", "setting": "leucémie L 1210; 40 mg/kg i.p. J1-J5", "value": 0},
      {"measurement": "Jour médian de survie", "setting": "leucémie L 1210; 50 mg/kg i.p. J1-J5", "value": "8,2"},
      {"measurement": "T/C %", "setting": "leucémie L 1210; 50 mg/kg i.p. J1-J5", "value": 89, "unit": "%"},
      {"measurement": "Survivants", "setting": "leucémie L 1210; 50 mg/kg i.p. J1-J5", "value": 0},
      {"measurement": "Jour médian de survie", "setting": "leucémie L 1210; 1,25 mg/kg i.p. J1-J5", "value": "11,75"},
      {"measurement": "T/C %", "setting": "leucémie L 1210; 1,25 mg/kg i.p. J1-J5", "value": 128, "unit": "%"},
      {"measurement": "Survivants", "setting": "leucémie L 1210; 1,25 mg/kg i.p. J1-J5", "value": 0},
      {"measurement": "Jour médian de survie", "setting": "leucémie L 1210; 2,5 mg/kg i.p. J1-J5", "value": "12,90"},
      {"measurement": "T/C %", "setting": "leucémie L 1210; 2,5 mg/kg i.p. J1-J5", "value": 140, "unit": "%"},
      {"measurement": "Survivants", "setting": "leucémie L 1210; 2,5 mg/kg i.p. J1-J5", "value": 0},
      {"measurement": "Jour médian de survie", "setting": "réticulosarcome M5-M5076; 25 mg/kg i.p. J1, 5, 9, 13, 17", "value": "51,0"},
      {"measurement": "T/C %", "setting": "réticulosarcome M5-M5076; 25 mg/kg i.p. J1, 5, 9, 13, 17", "value": 195, "unit": "%"},
      {"measurement": "Survivants", "setting": "réticulosarcome M5-M5076; 25 mg/kg i.p. J1, 5, 9, 13, 17", "value": 1},
      {"measurement": "Jour médian de survie", "setting": "réticulosarcome M5-M5076; 50 mg/kg i.p. J1, 5, 9, 13, 17", "value": "45,0"},
      {"measurement": "T/C %", "setting": "réticulosarcome M5-M5076; 50 mg/kg i.p. J1, 5, 9, 13, 17", "value": 172, "unit": "%"},
      {"measurement": "Survivants", "setting": "réticulosarcome M5-M5076; 50 mg/kg i.p. J1, 5, 9, 13, 17", "value": 0},
      {"measurement": "Jour médian de survie", "setting": "réticulosarcome M5-M5076; 75 mg/kg i.p. J1, 5, 9, 13, 17", "value": "41,7"},
      {"measurement": "T/C %", "setting": "réticulosarcome M5-M5076; 75 mg/kg i.p. J1, 5, 9, 13, 17", "value": 159, "unit": "%"},
      {"measurement": "Survivants", "setting": "réticulosarcome M5-M5076; 75 mg/kg i.p. J1, 5, 9, 13, 17", "value": 0},
      {"measurement": "Jour médian de survie", "setting": "réticulosarcome M5-M5076; [1]", "value": "44,7"},
      {"measurement": "T/C %", "setting": "réticulosarcome M5-M5076; [1]", "value": 171, "unit": "%"},
      {"measurement": "Survivants", "setting": "réticulosarcome M5-M5076; [1]", "value": 0},
      {"measurement": "Jour médian de survie", "setting": "réticulosarcome M5-M5076; [2]", "value": "10,0"},
      {"measurement": "T/C %", "setting": "réticulosarcome M5-M5076; [2]", "value": 38, "unit": "%"},
      {"measurement": "Survivants", "setting": "réticulosarcome M5-M5076; [2]", "value": 0}
    ]}
  ]
}
